The values that follow come from publication PMC4393181, “The Chemopotential Effect of Annona muricata Leaves against Azoxymethane-Induced Colonic Aberrant Crypt Foci in Rats and the Apoptotic Effect of Acetogenin Annomuricin E in HT-29 Cells: A Bioassay-Guided Approach” (PLoS ONE, 2015).

Series [1] deals with Bcl-2. In words: Q-PCR gene expression analysis of Bcl-2. It is filed as cell-based, human. The conditions noted are these: HT-29, IC50 concentration, 12 to 48 h. The protocol: (§1) The mRNA expression of two proteins, Bcl-2 and Bax, was quantified using real-time Q-PCR analysis as described previously with some modifications. […] The total RNA of treated cells was isolated using the RNeasy Plus Mini kit (Qiagen, Hilden, Germany) followed by the synthesis of the complementary DNA using the iScript cDNA synthesis kit (Biorad, Hercules, CA, USA). Q-PCR was performed on the StepOne PLUS real-time PCR machine (Applied Biosystems, Carlsbad, CA, USA). The β-actin housekeeping gene was used as a positive reference and was applied to normalize the target mRNA. The Q-PCR master mix was provided by Solaris Q-PCR Expression Assays (Thermo Fisher Scientific, Waltham, MA, USA) for the gene expression analysis of Bcl-2, AX-003307-00-0100; Bax, AX-003308-00-0100; and β-actin, AX-003451-00-0100.

In series [2] the test system is CCD841 (normal human colon epithelial cells). In words: MTT assay on CCD841 cells. It is filed as cell-based. The conditions noted are these: mean ± SEM of three experiments. The protocol: (§2) CCD841 (normal human colon epithelial cells) and HT-29 (human colon cancer cells) were purchased from the American Type Cell Collection (ATCC, Manassas, VA, USA). The cells were maintained at 37°C in a humidified atmosphere of 5% CO2. The culture medium consisted of Dulbecco’s Modified Eagles medium (Sigma) that was supplemented with 10% Fetal Bovine Serum (PAA Laboratories, Pasching, […]), 100 μg/ml streptomycin (Sigma) and 100 U/ml penicillin (Sigma). The untreated medium containing 0.1% vehicle DMSO was applied as the negative control for all of the assays in the in vitro study.
(§3) Cell viability analysis was performed using the MTT assay as described previously. In brief, cells (5 × 10^4 cells/ml) at the exponential phase of growth were seeded in a 96-well plate and treated with serial concentrations of the tested agent (0.62, 1.25, 2.5, 5, 10, 20, 40 and 80 μg/ml) for 12, 24 and 48 h. 5-FU, a standard anticancer drug, was used as a positive control in this assay. After incubation, 20 μl of the MTT solution (5.0 mg/ml, Sigma) was loaded into each well, and the cells were further incubated at 37°C for 4 h. DMSO (150 μl) was then used to dissolve the formazan crystals. The cytotoxicity against cancer and normal cells was measured at the absorbance of 570 nm using an ELISA reader (Asys UVM340, Eugendorf, Austria). The data were then processed, and the antiproliferative potential of the tested agents was expressed as IC50 values, the concentration that causes a 50% inhibition of cell growth.
Background: Formazan colour is commonly taken as a measure of viable cells.

Series [3] concerns HT-29 cells. Put plainly: Cell cycle assay (PI staining, flow cytometry). It is filed as cell-based, human. As to conditions: HT-29, IC50 concentration. The protocol:
To determine the effect of annomuricin E on the cell cycle distribution, flow cytometric analysis was performed as described previously. […] After incubation, the treated HT-29 cells were harvested, washed twice with ice-cold PBS and fixed overnight at 4°C with 90% ethanol. The following day, the cells were washed and stained with propidium iodide (PI, 100 μl, 1 mg/ml). The cellular RNA was degraded using the enzyme RNAse A (200 μg/ml, Sigma). The stained cells were instantly examined using a BD FACSCanto II flow cytometer (BD Biosciences, San Jose, CA, USA) by analyzing 10,000 cells per sample. The data were processed using ModFit LT software (Verity Software House, Inc., Topsham, ME, USA).
For orientation: Flow cytometry measures light scatter and fluorescence of single cells or particles in a stream.

Series [4] relates to HT-29 cells. In words: Annexin V-FITC/PI detection of early and late apoptosis. It is filed as cell-based, human. The conditions noted are these: HT-29, IC50 concentration. As to the method:
Flow cytometric analysis was performed to quantify early and late apoptosis in treated HT-29 cells using the commercial BD Pharmingen Annexin V-FITC Apoptosis Detection kit (APOAlert Annexin V; Clontech, Mountain View, CA, USA). […] After incubation, the treated cells were harvested, washed twice with PBS and suspended in the Annexin-V binding buffer. The cells were then supplemented with Annexin-V-FITC and PI, according to the vendor’s instructions. The stained cells were examined using a BD FACSCanto II flow cytometer. Early and late apoptotic cells and necrotic cells were quantitatively detected using a quadrant statistics analysis.

The subject of series [5] is HT-29 cells. In words: Multiple cytotoxicity assay (Cellomics Multiparameter Cytotoxicity 3 Kit). It is filed as cell-based, human. The protocol: The simultaneous analysis of critical apoptosis markers, namely cell membrane permeability, cytochrome c leakage from the mitochondria, mitochondrial membrane potential (MMP) and total nuclear intensity, in HT-29 cells was performed using the Cellomics Multiparameter Cytotoxicity 3 Kit (Cellomics, Pittsburgh, PA, USA) as previously described in detail. […] After incubation, the treated cells were stained with a cell permeability dye (FITC), a cytochrome c dye (Cy3), a mitochondrial membrane potential dye (Cy5) and a nuclear dye (Hoechst 33342), according to the vendor’s protocol. The plates were analyzed using a Cell Reporter cytofluorimeter system (Gentix/Molecular Devices, United Kingdom).

For series [6], the system named is Bcl-2. In words: Immunofluorescence analysis of Bcl-2. It is filed as cell-based, human. The conditions noted are these: HT-29, IC50 concentration, 12, 24 and 48 h, compared with control. As to the method: (§4) The perturbation in the protein expressions of Bcl-2 and Bax was investigated using immunofluorescence analysis as previously described in detail. […] After washing the cells twice with PBS, they were fixed in 4% paraformaldehyde at 25°C for 20 min prior to blocking with blocking buffer (0.03% Triton X-100/PBS and normal serum) for 1 h. The cells were then supplemented with a primary antibody solution and incubated overnight at 4°C. After incubation, the cells were treated with Bcl-2 and Bax flurochrome-conjugated secondary antibody (Santa Cruz Biotechnology, Santa Cruz, CA, USA) for 1 h. The cells were then washed twice with PBS prior to staining with DAPI. The stained cells were examined using the Cell Reporter cytofluorimeter system.

Series [7] deals with caspase 9. Put plainly: Caspase-Glo 9 luminescence assay. It is filed as cell-based, human. The conditions noted are these: HT-29, IC50 concentration, 12 to 48 h, vs control. As to the method: (§5) A luminescence-based analysis was performed to investigate the activity of caspase 3/7 and caspase 9 using the Caspase-Glo 9 Assay and Caspase-Glo 3/7 Assay commercial kits (Promega Corporation, Fitchburg, WI, USA) as described previously. […] After incubation, 100 μl of the caspase-Glo reagent was added to each well according to the manufacturer’s protocol. Luminescence, which represents the caspase activities, was measured using a luminescence microplate reader (Tecan Infinite 200 Pro).

The test system of series [8] is Bax. In words: Q-PCR gene expression analysis of Bax. It is filed as cell-based, human. As to conditions: HT-29, IC50 concentration, 48 h, normalized to β-actin. As to the method: as §1
The subject of series [9] is HT-29 cells. In words: LDH release assay. The format is cell-based, human. The conditions noted are these: HT-29, 24 h, compared with 0.1% DMSO control. The protocol:
To further confirm the cytotoxic effects of annomuricin E on HT-29 cells, the LDH release assay was performed using the Pierce LDH Cytotoxicity Assay Kit (Thermo Scientific, Pittsburgh, PA, USA) as previously described. Briefly, HT-29 cells at the exponential phase of growth were treated with different concentrations of annomuricin E and Triton X-100 (positive control) for 24 h. After the incubation, the treated HT-29 cells were exposed to the LDH reaction solution (100 μl) for 30 min. The red color intensity, representing the level of released LDH, was then measured at 490 nm using the Tecan Infinite 200 Pro (Tecan, Männedorf, Switzerland) microplate reader. The result of LDH release was calculated as a percentage of the positive control.

For series [10], the system named is Bax. In words: Immunofluorescence analysis of Bax. It is filed as cell-based, human. As to conditions: HT-29, IC50 concentration, 48 h. As to the method:
as §4

Series [11] deals with caspase 3/7. In words: Caspase-Glo 3/7 luminescence assay. It is filed as cell-based, human. As to conditions: HT-29, IC50 concentration, 12 to 48 h, vs control. The protocol: as §5
The subject of series [12] is HT-29 (human colon cancer cells). In words: MTT assay on HT-29 cells. The format is cell-based. As to conditions: mean ± SEM of three experiments. As to the method: as §2, §3

The IC50 is the point on the concentration scale where inhibition reaches its midpoint. In the case of annomuricin E, the “Bcl-2 mRNA expression” value in series [1] is reported as “time-dependently reduced”. Also, the IC50 in [2] (CCD841, 12 h) came out at 64.32 ± 3.76 µg/mL; in [2] (CCD841, 24 h), 47.10 ± 0.47 µg/mL; in [2] (CCD841, 48 h), 32.51 ± 1.18 µg/mL; in series [12] (HT-29, 12 h), 5.72 ± 0.41 µg/mL; in [12] (HT-29, 24 h), 3.49 ± 0.22 µg/mL; in [12] (HT-29, 48 h) it was 1.62 ± 0.24 µg/mL. For the same substance, the “Percentage of cells arrested at the G1 phase” value in series [3] (24 h) stood at 89.65%; in series [3] (48 h), 94.60%. The results for the “Percentage of late apoptotic cells (Annexin V+/PI+)” value in series [4] (12 h (control 0.5%)) and in [4] (24 h (peak)) were 6.9% and 13.6%, respectively. For the same substance, the “Percentage of early apoptotic cells (Annexin V+/PI-)” value in series [4] (12 h (control 3.6%)) is 13.9%; in series [4] (24 h (peak)) it was 27.3%. The Total nuclear intensity result in [5] (HT-29, IC50 concentration, 12, 24 and 48 h) is given as “significantly elevated”. Besides, the “Mitochondrial membrane potential (MMP)” value in series [5] (HT-29, IC50 concentration, 12 h) is given as “significant collapse”. The “Cytochrome c leakage from the mitochondria” value in series [5] (HT-29, IC50 concentration, from 12 h, time-dependent) was “increase in cytochrome c leakage”. The Cell membrane permeability result in series [5] (HT-29, IC50 concentration, only 24 and 48 h) was “significantly increased”. Besides, the Bcl-2 protein expression result in series [6] was “significantly and dose-dependently reduced”. Further, in [7], the “Caspase 9 activity” value is on record as “significantly elevated”. Besides, the “Bax mRNA expression, increase relative to control” value in series [8] is reported as “approximately 5 fold”. For the same substance, the “Lowest concentration with significant LDH leakage” value in series [9] is 4 µg/mL. For the same substance, in [10], the “Bax protein expression (FITC fluorescent intensity), increase relative to control” value was “approximately 10 fold”. Also, in [11], the “Caspase 3/7 activity” value is “significantly elevated”.
